Common to all, as to type: cell-based
For one test, the system named is Pseudomonas aeruginosa. The test is described as follows: Synergism (BNPD/MIT), MIC values for Pseudomonas aeruginosa. Conditions: read-out: MIC values for Pseudomonas aeruginosa. The text has this:
(§1) The mixtures according to the invention have synergistic activity. The observed synergism can be determined by the following mathematical equation (see F. C. Kull, P. C. Elisman, H. D. Sylwestrowicz and P. K. Mayer, Appl. Microbiol. 9, 538 (1961): [formula]
(§2) Qa=the amount of component A in the active compound mixture which achieves the desired effect, i.e. no microbial growth.
(§3) QA=the amount of component A which, when used on its own, suppresses the growth of the microorganisms.
(§4) Qb=the amount of component B in the active compound mixture which suppresses the growth of the micoorganisms.
(§5) QB=the amount of component B which, when used on its own, suppresses the growth of the microorganisms.
(§6) A synergistic index of SI<1 indicates a synergistic effect for the mixture in question. […] All parts and percentages are by weight unless otherwise indicated.
Test pathogen: Pseudomonas aeruginosa
(§7) In brackets=mixing ratios of the pure active compounds

The subject of a further test is Pseudomonas fluorescens. The test is described as follows: Synergism (BNPD/MIT), MIC values for Pseudomonas fluorescens. Particulars: read-out: MIC values for Pseudomonas fluorescens.
Excerpt: as §1, §2, §3, §4, §5, §6
Test pathogen: Pseudomonas fluorescens
as §7

In another test the test system is Bacillus subtilis. The test is described as follows: Synergism (BNPD/MIT), MIC values for Bacillus subtilis. Conditions: read-out: MIC values for Bacillus subtilis.
Excerpt: as §1, §2, §3, §4, §5, §6
Test pathogen: Bacillus subtilis
as §7

Molecules are shown by their SMILES.

For orientation: MIC means the least concentration at which growth counts as inhibited. Take `O=[N+]([O-])C(Br)(CO)CO` [BNPD, 2-bromo-2-nitropropanediol]: the MIC with Pseudomonas aeruginosa, in the test on Pseudomonas fluorescens and with Bacillus subtilis was 10 µg/mL each time.
For `Cn1sccc1=O` [MIT, 2-methyl-2H-isothiazol-3-one], the MIC in the test on Pseudomonas aeruginosa came to 10 µg/mL; with Pseudomonas fluorescens, 10 µg/mL; with Bacillus subtilis, 25 µg/mL.
